Laboratory results reported in patent US20160000796A1, “PHARMACEUTICAL COMPOSITION FOR USE IN PREVENTION OR TREATMENT OF CANCER” (priority 2013, published 2016).

Key:
[1] = test system: HTLV-1-infected cell line, MT2; assay: Combination of abacavir and topoisomerase inhibitor, cellular proliferation (MTS), MT2; type: cell-based; details: 48 hours, abacavir 10 or 25 μM plus CPT-11 200-400 pM, VP16 100-500 nM or ADR 10-50 nM
Experimental: An HTLV-1-infected cell line, MT2 cell, was used. Abacavir was added at a concentration of 0 μM (DMSO was added instead of abacavir), 10 μM, or 25 μM, and to each of the samples, CPT-11 (generic name: irinotecan) was further added at a concentration of 0 pM, 200 pM, 300 pM, or 400 pM. The cells were cultured for 48 hours. Separately, abacavir was added to MT2 cells at the concentrations as described above, and VP16 (generic name: etoposide) was further added to each of the samples at a concentration of 0 nM, 100 nM, 250 nM, or 500 nM, followed by 48 hours culture. Separately, abacavir was added to MT2 cells at the concentrations as described above, and ADR (generic name: doxorubicin) was further added at a concentration of 0 nM, 10 nM, 25 nM, or 50 nM, followed by 48 hours culture. MTS assay was performed using a reagent for cellular proliferation test, Aqueous One Solution Cell Proliferation (trade name, manufactured by Promega), in the same manner as in Example 1.
The graphs (A), (B), and (c) show the results of combinations of abacavir (ABC in the graph) and CPT-11, abacavir and VP16, and abacavir and ADR, respectively. In the graphs, the vertical axis indicates the proliferation rate calculated from the cell number when the cell number at the administration of the agents was regarded as 1.

[2] = test system: ATL cell line, ED40515 (−); assay: Chromosome double-strand break (Giemsa chromosome specimens), ED40515 (−); type: cell-based; details: 48 hours, abacavir 10-100 μM, zidovudine 10 or 100 μM
Experimental: Abacavir was added to an ATL cell line, ED40515 (−), at a concentration of 0 μM (DMSO was added instead of abacavir), 10 μM, 25 μM, 50 μM, 75 μM or 100 μM. After the 48 hours culture, the cells were fixed by Carnoy and stained with Giemsa to prepare chromosome specimens in accordance with conventional methods. Similarly, zidovudine was added to ED40515 (−) at a concentration of 10 μM or 100 μM, and abacavir was added to a non-ATL cell line, Jurkat, at a concentration of 100 μM, and chromosome specimens were prepared. Chromosome images (100 or more images per group) were observed by an optical microscope. The cells were determined as being positive for double-strand break (DSB) when at least one chromosome break was found.

[3] = test system: ATL cells; details: in vitro; Non Patent Literature 4; cited from earlier work
[4] = test system: ATL cell line, ED40515 (−); assay: PARP inhibitor combination, cellular proliferation (MTS), ED40515 (−); type: cell-based; details: olaparib 1-1000 μM with abacavir 10, 50 or 100 μM, 48 hours
Experimental: (§1) To an ATL cell line, ED40515 (−), or a non-ATL cell line, Jurkat, abacavir was added at a concentration of 0 μM (DMSO, was added instead of abacavir), 10 μM, 50 μM or 100 μM, and further a PARP inhibitor, olaparib, was added at a concentration of 0 μM (DMSO was added instead of olaparib), 1 μM, 10 μM, 100 μM or 1000 μM. The cells were cultured for 48 hours. MTS assay was performed using a reagent for cellular proliferation test, Aqueous One Solution Cell Proliferation (trade name, manufactured by Promega), in the same manner as in Example 1. The cellular proliferation was represented by a ratio relative to that of the control (solvent control) on Day 0 that was regarded as 1.

[5] = test system: non-ATL cell line, Jurkat; assay: PARP inhibitor combination, cellular proliferation (MTS), Jurkat; type: cell-based, human; details: olaparib 1-1000 μM, 48 hours
Experimental: as §1

COc1cc([C@@H]2c3cc4c(cc3[C@@H](O[C@@H]3O[C@@H]5CO[C@@H](C)O[C@H]5[C@H](O)[C@H]3O)[C@H]3COC(=O)[C@H]23)OCO4)cc(OC)c1O [VP16, etoposide]
cellular proliferation (proliferation rate) in combination with abacavir [1]: significantly suppressed cellular proliferation

COc1cccc2c1C(=O)c1c(O)c3c(c(O)c1C2=O)C[C@@](O)(C(=O)CO)C[C@@H]3O[C@H]1C[C@H](N)[C@H](O)[C@H](C)O1 [ADR, doxorubicin]
cellular proliferation (proliferation rate) in combination with abacavir [1]: significantly suppressed cellular proliferation

Cc1cn([C@H]2C[C@H](N=[N+]=[N-])[C@@H](CO)O2)c(=O)[nH]c1=O [zidovudine]
ratio of double-strand break-positive cells [2]: did not induce double-strand break | anti-cancer effect against ATL cells [3]: no anti-cancer effect

CCc1c2c(nc3ccc(OC(=O)N4CCC(N5CCCCC5)CC4)cc13)-c1cc3c(c(=O)n1C2)COC(=O)[C@]3(O)CC [CPT-11, irinotecan]
cellular proliferation (proliferation rate) in combination with abacavir [1]: significantly suppressed cellular proliferation

O=C(c1cc(Cc2n[nH]c(=O)c3ccccc23)ccc1F)N1CCN(C(=O)C2CC2)CC1 [olaparib]
effect of PARP inhibitor on suppression of cellular proliferation by abacavir [4]: enhanced the suppressive effect of abacavir | cellular proliferation [5]: did not affect cellular proliferation
